Experimental data reported in the NIST ThermoML archive (doi:10.1021/acs.jced.5b00838).

What was measured:
[1] = 101.33 kPa, Liquid, Vibrating tube method
[2] = excess molar enthalpy (molar enthalpy of mixing); xn = mol fraction of the nth substance listed; conditions: 100 kPa, Liquid, isothermal titration calorimetry

CCCCCCOCC [1-ethoxyhexane]
[1]
Conditions	mass density [kg/m3]
288.15 K	775.8
293.15 K	771.47
298.15 K	767.15
303.15 K	762.8
308.15 K	758.45
313.15 K	754.06
318.15 K	749.66
323.15 K	745.27

CCCCCCCOC [1-methoxyheptane]
[1]
Conditions	mass density [kg/m3]
288.15 K	783.89
293.15 K	779.71
298.15 K	775.52
303.15 K	771.31
308.15 K	767.09
313.15 K	762.85
318.15 K	758.57
323.15 K	754.3

CCCCOCC(C)C [butyl isobutyl ether]
[1]
Conditions	mass density [kg/m3]
288.15 K	764.07
293.15 K	759.72
298.15 K	755.31
303.15 K	750.87
308.15 K	746.45
313.15 K	741.98
318.15 K	737.58
323.15 K	732.99

CCCOCCC(C)C [3-methyl-1-propoxybutane]
[1]
Conditions	mass density [kg/m3]
288.15 K	768.79
293.15 K	764.43
298.15 K	760.04
303.15 K	755.62
308.15 K	751.22
313.15 K	746.78
318.15 K	742.31
323.15 K	737.84

CC#N [acetonitrile]
[1]
Conditions	mass density [kg/m3]
298.15 K	776.51
303.15 K	771.06
308.15 K	765.59
313.15 K	760.1
318.15 K	754.56
323.15 K	748.99

CCCCCOCCC [1-propoxypentane]
[1]
Conditions	mass density [kg/m3]
288.15 K	773.45
293.15 K	769.12
298.15 K	764.78
303.15 K	760.4
308.15 K	756.01
313.15 K	751.6
318.15 K	747.19
323.15 K	742.73

CCCOCCC(C)C [3-methyl-1-propoxybutane] + CC#N
[2]
Conditions	excess molar enthalpy [kcal/mol]
298.15 K, x2 = 0.0312	0.0349
298.15 K, x2 = 0.0606	0.0693
298.15 K, x2 = 0.0882	0.0976
298.15 K, x2 = 0.1142	0.122
298.15 K, x2 = 0.1388	0.144
298.15 K, x2 = 0.1841	0.178
298.15 K, x2 = 0.2249	0.204
298.15 K, x2 = 0.2618	0.224
298.15 K, x2 = 0.3259	0.253
298.15 K, x2 = 0.3798	0.271
298.15 K, x2 = 0.4258	0.281
298.15 K, x2 = 0.4654	0.286
298.15 K, x2 = 0.5079	0.289
298.15 K, x2 = 0.5442	0.289
298.15 K, x2 = 0.5756	0.287
298.15 K, x2 = 0.6028	0.284
298.15 K, x2 = 0.6559	0.274
298.15 K, x2 = 0.6774	0.269
298.15 K, x2 = 0.6994	0.262
298.15 K, x2 = 0.7186	0.255
298.15 K, x2 = 0.7355	0.248
298.15 K, x2 = 0.7504	0.241
298.15 K, x2 = 0.7638	0.234
308.15 K, x2 = 0.0302	0.0413
308.15 K, x2 = 0.0586	0.0789
308.15 K, x2 = 0.0854	0.11
308.15 K, x2 = 0.1107	0.136
308.15 K, x2 = 0.1347	0.158
308.15 K, x2 = 0.1789	0.195
308.15 K, x2 = 0.2188	0.223
308.15 K, x2 = 0.2551	0.245
308.15 K, x2 = 0.2881	0.262
308.15 K, x2 = 0.3183	0.275
308.15 K, x2 = 0.3716	0.293
308.15 K, x2 = 0.4172	0.304
308.15 K, x2 = 0.4567	0.31
308.15 K, x2 = 0.4992	0.313
308.15 K, x2 = 0.5356	0.313
308.15 K, x2 = 0.567	0.311
308.15 K, x2 = 0.5944	0.307
308.15 K, x2 = 0.6231	0.302
308.15 K, x2 = 0.648	0.295
308.15 K, x2 = 0.6698	0.289
308.15 K, x2 = 0.692	0.281
308.15 K, x2 = 0.7115	0.274
308.15 K, x2 = 0.7146	0.269
308.15 K, x2 = 0.7286	0.266
308.15 K, x2 = 0.7356	0.26
308.15 K, x2 = 0.7438	0.259
308.15 K, x2 = 0.7574	0.252
308.15 K, x2 = 0.7579	0.249
308.15 K, x2 = 0.7816	0.236
308.15 K, x2 = 0.8068	0.219
308.15 K, x2 = 0.8337	0.2
308.15 K, x2 = 0.8507	0.186
308.15 K, x2 = 0.8684	0.17
308.15 K, x2 = 0.8869	0.151
308.15 K, x2 = 0.9061	0.13
308.15 K, x2 = 0.9263	0.107
308.15 K, x2 = 0.9401	0.0886
308.15 K, x2 = 0.9544	0.0689
308.15 K, x2 = 0.9691	0.0474
308.15 K, x2 = 0.9843	0.0234

CCCCOCC(C)C [butyl isobutyl ether] + CC#N
[2], 298.15 K
Conditions	excess molar enthalpy [kcal/mol]
x2 = 0.0314	0.0454
x2 = 0.061	0.0839
x2 = 0.0887	0.116
x2 = 0.1149	0.143
x2 = 0.1396	0.167
x2 = 0.1851	0.204
x2 = 0.2261	0.233
x2 = 0.2631	0.255
x2 = 0.2967	0.273
x2 = 0.3275	0.286
x2 = 0.3815	0.302
x2 = 0.4274	0.31
x2 = 0.4671	0.315
x2 = 0.5097	0.317
x2 = 0.5459	0.316
x2 = 0.5772	0.311
x2 = 0.6045	0.308
x2 = 0.6329	0.301
x2 = 0.6575	0.295
x2 = 0.6789	0.289
x2 = 0.7009	0.282
x2 = 0.7183	0.275
x2 = 0.72	0.275
x2 = 0.7368	0.268
x2 = 0.7392	0.267
x2 = 0.7517	0.261
x2 = 0.7613	0.256
x2 = 0.765	0.254
x2 = 0.7847	0.242
x2 = 0.8097	0.226
x2 = 0.8362	0.207
x2 = 0.853	0.193
x2 = 0.8705	0.177
x2 = 0.8887	0.158
x2 = 0.9077	0.137
x2 = 0.9275	0.112
x2 = 0.9411	0.0935
x2 = 0.9552	0.073
x2 = 0.9697	0.0503
x2 = 0.9846	0.0253
